Assay results as given in patent US20080125460A1, “Imidazopyridine-Derivatives As Inducible No-Synthase Inhibitors” (Altana Pharma AG, priority 2003, published 2008).

Columns and labels:
[1] = molecular target: human inducible NO-synthase (Homo sapiens, UniProt P35228); test: Measurement of inducible NO-synthase activity ([3H]arginine conversion); assay type: biochemical; details: crude cytosolic fraction containing human inducible NO-synthase; 0.1 μM arginine; 45 to 60 min at 37° C.; read-out: Inhibition of iNOS activity [measured as -logIC50 (mol/l)] (converted)
Method: The assay is performed in 96well microtiter F-plates (Greiner, Frickenhausen, FRG) in a total volume of 100 μl in the presence of 100 nM calmodulin, 226 μM CaCl2, 477 μM MgCl2, 5 μM flavin-adenine-dinucleotide (FAD), 5 μM flavin mononucleotide (FMN), 0.1 mM NADPH, 7 mM glutathione, 10 μM BH4 and 100 mM HEPES pH 7.2. Arginine concentrations are 0.1 μM for enzyme inhibition experiments. 150000 dpm of [^3H]arginine are added to the assay mixture. Enzyme reaction is started by the addition of 4 μg of a crude cytosolic fraction containing human inducible NO-synthase and the reaction mixture is incubated for 45 to 60 min at 37° C. Enzyme reaction is stopped by adding 10 μl of 2M MES-buffer pH 5.0. 50 μl of the incubation mixture are transferred into a MADP N65 filtration microtiter plate (Millipore, Eschborn, FRG) containing already 50 μl of AG-50W-X8 cation exchange resin (Biorad, München, FRG). The resin in the Na loaded form is pre-equilibrated in water and 70 μl (corresponding to 50 μl dry beads) are pipetted under heavy stirring with a 8 channel pipette into the filtration plate. After pipetting 50 μl of the enzyme reaction mixture onto the filtration plates, the plates are placed on a filtration manifold (Porvair, Shepperton, UK) and the flow through is collected in Pico scintillation plates (Packard, Meriden, CT). The resin in the filtration plates is washed with 75 μl of water (1×50 μl and 1×25 μl) which is also collected in the same plate as the sample. The total flow through of 125 μl is mixed with 175 μl of Microscint-40 scintillation cocktail (Packard) and the scintillation plate is sealed with TopSeal P-foil (Packard). Scintillation plates are counted in a scintillation counter.
For the measurement of inducible NO-synthase-inhibiting potencies of compounds increasing concentrations of inhibitors were included into the incubation mixture. IC50-values were calculated from the percent inhibition at given concentrations by nonlinear least square fitting.

Row | IC50 [1] [nM] | melting point [°C] | SMILES
1 | 30.9 to 245 | – | COc1ccnc(CCc2nc3cc(-c4nc5ccccc5[nH]4)cnc3[nH]2)c1 [Example 7, 6-(1H-Benzoimidazol-2-yl)-2-[2-(4-methoxy-pyridin-2-yl)-ethyl]-3H-imidazo[4,5-b]pyridine]
2 | 24.5 | 132 to 133 | COc1ccnc(CCc2nc3cc(-c4cccs4)cnc3[nH]2)c1 [Example 4, 2-[2-(4-Methoxypyridin-2-yl)ethyl]-6-(thiophen-2-yl)-3H-imidazo-[4,5-b]pyridine]
3 | 30.9 to 245 | – | COc1ccnc(CCc2nc3cc(-c4cc5ccccc5s4)cnc3[nH]2)c1 [Example 11, 6-Benzo[b]thiophen-2-yl-2-[2-(4-methoxy-pyridin-2-yl)-ethyl]-3H-imidazo[4,5-b]pyridine]
4 | 30.9 to 245 | – | COc1ccnc(CCc2nc3cc(-c4ccc(-c5ccccc5)s4)cnc3[nH]2)c1 [Example 13, 2-[2-(4-Methoxy-pyridin-2-yl)-ethyl]-6-(5-phenyl-thiophen-2-yl)-3H-imidazo[4,5-b]pyridine]
5 | 30.9 to 245 | – | COc1ccnc(CCc2nc3cc(-c4csc5ccccc45)cnc3[nH]2)c1 [Example 9, 6-Benzo[b]thiophen-3-yl-2-[2-(4-methoxy-pyridin-2-yl)-ethyl]-3H-imidazo[4,5-b]pyridine]
6 | 30.9 to 245 | – | COc1ccnc(CCc2nc3cc(-c4ccc(C)s4)cnc3[nH]2)c1 [Example 12, 2-[2-(4-Methoxy-pyridin-2-yl)-ethyl]-6-(5-methyl-thiophen-2-yl)-3H-imidazo[4,5-b]pyridine]
7 | 30.9 to 245 | – | COc1ccnc(CCc2nc3cc(-c4cc5ccccc5o4)cnc3[nH]2)c1 [Example 10, 6-Benzofuran-2-yl-2-[2-(4-methoxy-pyridin-2-yl)-ethyl]-3H-imidazo[4,5-b]pyridine]

Further lines, the compound ahead of its results:

Row | SMILES | IC50 [1] [nM] | melting point [°C]
8 | COc1ccnc(CCc2nc3cc(-c4ccoc4)cnc3[nH]2)c1 [Example 2, 6-Furan-3-yl-[2-(4-methoxypyridin-2-yl)ethyl]-3H-imidazo[4,5-b]pyridine] | 45.7 | 193 to 194
9 | COc1ccnc(CCc2nc3cc(-c4ccncc4)cnc3[nH]2)c1 [Example 3, 2-[2-(4-Methoxypyridin-2-yl)ethyl]-6-(pyridin-4-yl)-3H-imidazo-[4,5-b]pyridine] | 55 | 237 to 238
10 | COc1ccnc(CCc2nc3cc(-c4ccc5[nH]ccc5c4)cnc3[nH]2)c1 [Example 6, 6-(1H-Indol-5-yl)-2-[2-(4-methoxypyridin-2-yl)ethyl)-3H-imidazo-[4,5-b]pyridine] | 49 | 241 to 242
11 | COc1ccnc(CCc2nc3cc(-c4ccsc4)cnc3[nH]2)c1 [Example 5, 2-[2-(4-Methoxypyridin-2-yl)ethyl]-6-(thiophen-3-yl)-3H-imidazo-[4,5-b]pyridine] | 34.7 | 154 to 155
12 | COc1ccnc(CCc2nc3cc(-c4ccco4)cnc3[nH]2)c1 [Example 1, 6-Furan-2-yl-[2-(4-methoxypyridin-2-yl)ethyl]-3H-imidazo[4,5-b]pyridine] | 49 | 147 to 148
13 | COc1ccnc(CCc2nc3cc(-c4nc5cc(C)ccc5[nH]4)cnc3[nH]2)c1 [Example 8, 2-[2-(4-Methoxy-pyridin-2-yl)-ethyl]-6-(5-methyl-1H-benzoimidazol-2-yl)-3H-imidazo[4,5-b]pyridine] | 30.9 to 245 | –
